# Values of other authors as cited in patent publication US8412321B2, “Method of identifying strategies for treatment or prevention of ventricular fibrillation and ventricular tachycardia” (Cornell Research Foundation, Inc., priority 2004, dated 2013).
# Tested on: arterially perfused canine ventricle
smiles,measurement,setting,value
COc1ccc(CCN(C)CCCC(C#N)(c2ccc(OC)c(OC)c2)C(C)C)cc1OC (stereo not drawn) [verapamil],slope of the APD restitution relation,"after exposure to verapamil, FIG. 14A",reduction in the slope of the APD restitution relation
same,magnitude of APD alternans (AM),"pacing at different basic cycle lengths, FIG. 14B",reduction in the magnitude of APD alternans
same,composite FFT of MAP recordings during VF,"verapamil added after 35 min of VF, FIG. 14C",converted the broad FFT spectra during VF to a single frequency
